Data taken from article PMC6001238, “Iterative Chemical Engineering of Vancomycin Leads to Novel Vancomycin Analogs With a High in Vitro Therapeutic Index” (Frontiers in Microbiology, 2018).
In brackets after ≈: the same amount, converted by molar mass.

Tests used:
[1] = test system: Murine leukemia (L1210) cells; experiment: Cytostatic activity, L1210 cell proliferation; assay type: cell-based; conditions: mean ± SD of three experiments; highest concentration tested 250 µM; 2 days; read-out: Toxicity (IC50) L1210
Procedure, shortened: (§1)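 Test compounds, serially diluted, received an equal volume of cell suspension at 300,000–500,000 cells/mL. After 37°C incubation (2 days for L1210, 3 for CEM, 4 for HeLa), cells were enumerated by Coulter counting and 50%-inhibitory concentrations calculated per cell type.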

[2] = test system: S. aureus VSSA (ATCC 6538); experiment: MIC, broth microdilution, vancomycin-sensitive S. aureus (VSSA/MSSA, ATCC 6538); assay type: cell-based, Staphylococcus aureus; conditions: for MIC: Staphylococcus aureus VSSA, read-out: MIC; for MIC-fold improvement vs. vancomycin: VSSA, ratio of MIC of vancomycin and MIC of analogue
Procedure, shortened: (§2)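 MIC values come from broth microdilution run to CLSI susceptibility-testing standards. Ultrapure water and uninoculated broth served as controls. In one series, vancomycin at a final 10 μM was co-dosed with the analogue or comparator antibiotic.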

[3] = test system: E. faecalis VSE 1; experiment: MIC, broth microdilution, vancomycin-sensitive E. faecalis (VSE 1); assay type: cell-based, Enterococcus faecalis; conditions: for MIC: Enterococcus faecalis VSE 1 (vancomycin-sensitive), read-out: MIC; for MIC-fold improvement vs. vancomycin: VSE 1, ratio of MIC of vancomycin and MIC of analogue
Procedure, shortened: as §2

[4] = test system: MRSA KS89; experiment: MIC, broth microdilution, MRSA KS89; assay type: cell-based, Staphylococcus aureus; conditions: for MIC-fold improvement vs. vancomycin: MRSA KS8, ratio of MIC of vancomycin and MIC of analogue; for MIC: Staphylococcus aureus MRSA KS8, read-out: MIC
Procedure, shortened: as §2

[5] = test system: MRSA KS6; experiment: MIC, broth microdilution, MRSA KS6; assay type: cell-based, Staphylococcus aureus; conditions: for MIC-fold improvement vs. vancomycin: MRSA KS6, ratio of MIC of vancomycin and MIC of analogue; for MIC: Staphylococcus aureus MRSA KS6, read-out: MIC
Procedure, shortened: as §2

[6] = test system: E. faecalis VRE 37; experiment: MIC, broth microdilution, vancomycin-resistant E. faecalis VRE 37 (VanA); assay type: cell-based, Enterococcus faecalis; conditions: for MIC: Enterococcus faecalis VRE 37 (vancomycin-resistant), read-out: MIC; for MIC-fold improvement vs. vancomycin: VRE 37, ratio of MIC of vancomycin and MIC of analogue
Procedure, shortened: as §2

[7] = test system: S. aureus VISA/HIP5827; experiment: MIC, broth microdilution, vancomycin-intermediate S. aureus VISA HIP5827; assay type: cell-based, Staphylococcus aureus; conditions: for MIC: Staphylococcus aureus VISA/HIP5827, read-out: MIC; for MIC-fold improvement vs. vancomycin: VISA/HIP5827, ratio of MIC of vancomycin and MIC of analogue
Procedure, shortened: as §2

[8] = test system: S. aureus VRSA; experiment: MIC, broth microdilution, vancomycin-resistant S. aureus (VRSA); assay type: cell-based, Staphylococcus aureus; conditions: for MIC: Staphylococcus aureus VRSA, read-out: MIC; for MIC-fold improvement vs. vancomycin: VRSA, ratio of MIC of vancomycin and MIC of analogue
Procedure, shortened: as §2

[9] = test system: human cervix carcinoma (HeLa) cells; experiment: Cytostatic activity, HeLa cell proliferation; assay type: cell-based; conditions: mean ± SD of three experiments; highest concentration tested 250 µM; 4 days; read-out: Toxicity (IC50) HeLa
Procedure, shortened: as §1

[10] = test system: E. faecalis VRE 6; experiment: MIC, broth microdilution, vancomycin-resistant E. faecalis VRE 6 (VanA); assay type: cell-based, Enterococcus faecalis; conditions: for MIC: Enterococcus faecalis VRE 6 (vancomycin-resistant), read-out: MIC; for MIC-fold improvement vs. vancomycin: VRE 6, ratio of MIC of vancomycin and MIC of analogue
Procedure, shortened: as §2

[11] = test system: human T-lymphocyte (CEM) cells; experiment: Cytostatic activity, CEM cell proliferation; assay type: cell-based; conditions: mean ± SD of three experiments; highest concentration tested 250 µM; 3 days; read-out: Toxicity (IC50) CEM
Procedure, shortened: as §1

[12] = test system: E. faecalis VRE 29; experiment: MIC, broth microdilution, vancomycin-resistant E. faecalis VRE 29 (VanA); assay type: cell-based, Enterococcus faecalis; conditions: for MIC: Enterococcus faecalis VRE 29 (vancomycin-resistant), read-out: MIC; for MIC-fold improvement vs. vancomycin: VRE 29, ratio of MIC of vancomycin and MIC of analogue
Procedure, shortened: as §2

[13] = test system: MRSA KS1; experiment: MIC, broth microdilution, MRSA KS1; assay type: cell-based, Staphylococcus aureus; conditions: for MIC-fold improvement vs. vancomycin: MRSA KS1, ratio of MIC of vancomycin and MIC of analogue; for MIC: Staphylococcus aureus MRSA KS1, read-out: MIC
Procedure, shortened: as §2

[14] = test system: MRSA KS2; experiment: MIC, broth microdilution, MRSA KS2; assay type: cell-based, Staphylococcus aureus; conditions: for MIC-fold improvement vs. vancomycin: MRSA KS2, ratio of MIC of vancomycin and MIC of analogue; for MIC: Staphylococcus aureus MRSA KS2, read-out: MIC
Procedure, shortened: as §2

[15] = test system: L1210, CEM and HeLa cell lines; experiment: Cytostatic activity, average or summary over L1210, CEM and HeLa; assay type: cell-based; conditions: average of L1210, CEM and HeLa; read-out: Toxicity (IC50) Average
Procedure, shortened: as §1

[16] = test system: E. faecalis VRE 53; experiment: MIC, broth microdilution, vancomycin-resistant E. faecalis VRE 53 (VanA); assay type: cell-based, Enterococcus faecalis; conditions: for MIC: Enterococcus faecalis VRE 53 (vancomycin-resistant), read-out: MIC; for MIC-fold improvement vs. vancomycin: VRE 53, ratio of MIC of vancomycin and MIC of analogue
Procedure, shortened: as §2

| Compound | IC50 [1] [µM] | MIC [2] [µM] | MIC-fold improvement vs. vancomycin [2] | MIC [3] [µM] | MIC-fold improvement vs. vancomycin [3] | MIC-fold improvement vs. vancomycin [4] | MIC [4] [µM] | MIC-fold improvement vs. vancomycin [5] | MIC [5] [µM] | MIC [6] [µM] | MIC [7] [µM] | MIC-fold improvement vs. vancomycin [7] | MIC [8] [µM] | MIC-fold improvement vs. vancomycin [8] | IC50 [9] [µM] | MIC [10] [µM] | MIC-fold improvement vs. vancomycin [10] | IC50 [11] [µM] | MIC [12] [µM] | MIC-fold improvement vs. vancomycin [12] | other results |
| --- | --- | --- | --- | --- | --- | --- | --- | --- | --- | --- | --- | --- | --- | --- | --- | --- | --- | --- | --- | --- | --- |
| CN[C@H](CC(C)C)C(=O)N[C@H]1C(=O)N[C@@H](CC(N)=O)C(=O)N[C@H]2C(=O)N[C@H]3C(=O)N[C@H](C(=O)N[C@H](C(=O)NCCNC(=O)/C=C/c4ccc(NS(=O)(=O)c5ccc(C)cc5)cc4)c4cc(O)cc(O)c4-c4cc3ccc4O)[C@H](O)c3ccc(c(Cl)c3)Oc3cc2cc(c3O[C@@H]2O[C@H](CO)[C@@H](O)[C@H](O)[C@H]2O[C@H]2C[C@](C)(N)[C@H](O)[C@H](C)O2)Oc2ccc(cc2Cl)[C@H]1O [Vanc-55] | > 250 | 0.78 (≈ 1.4 µg/mL) | 1 | 0.39 (≈ 0.698 µg/mL) | 4 | 2 | 0.39 (≈ 0.698 µg/mL) | 2 | 0.39 (≈ 0.698 µg/mL) | 12.5 (≈ 22.4 µg/mL) | 0.78 (≈ 1.4 µg/mL) | 8 | 0.39 (≈ 0.698 µg/mL) | 256 | 103 ± 10 | 6.25 (≈ 11.2 µg/mL) | 32 | ≥ 250 | 12.5 (≈ 22.4 µg/mL) | 32 | MIC-fold improvement vs. vancomycin [13]: 4; MIC [13]: 0.20 µM (≈ 0.358 µg/mL); MIC-fold improvement vs. vancomycin [14]: 4; MIC [14]: 0.20 µM (≈ 0.358 µg/mL); IC50 [15]: 201 µM; MIC [16]: 12.5 µM (≈ 22.4 µg/mL); MIC-fold improvement vs. vancomycin [16]: 32 |
| CNC(CC(C)C)C(=O)NC1C(=O)NC(CC(N)=O)C(=O)NC2C(=O)NC3C(=O)NC(C(=O)NC(C(=O)NCCCNC(=O)c4ccc(-c5ccc(-c6ccccc6)cc5)cc4)c4cc(O)cc(O)c4-c4cc3ccc4O)C(O)c3ccc(c(Cl)c3)Oc3cc2cc(c3OC2OC(CO)C(O)C(O)C2OC2CC(C)(N)C(O)C(C)O2)Oc2ccc(cc2Cl)C1O (stereo not drawn) [Vanc-35] | 4.1 ± 0.5 | 0.05 (≈ 0.0881 µg/mL) | 16 | 0.20 (≈ 0.352 µg/mL) | 8 | 4 | 0.20 (≈ 0.352 µg/mL) | 4 | 0.20 (≈ 0.352 µg/mL) | 1.56 (≈ 2.75 µg/mL) | 0.05 (≈ 0.0881 µg/mL) | 128 | 1.56 (≈ 2.75 µg/mL) | 64 | 17 ± 2 | 0.39 (≈ 0.687 µg/mL) | 513 | 0.98 ± 0.06 | 1.56 (≈ 2.75 µg/mL) | 256 | MIC-fold improvement vs. vancomycin [6]: 256; MIC-fold improvement vs. vancomycin [13]: 1; MIC [13]: 0.78 µM (≈ 1.37 µg/mL); MIC-fold improvement vs. vancomycin [14]: 2; MIC [14]: 0.39 µM (≈ 0.687 µg/mL); IC50 [15]: 7 µM; MIC [16]: 6.25 µM (≈ 11 µg/mL); MIC-fold improvement vs. vancomycin [16]: 64 |
| CNC(CC(C)C)C(=O)NC1C(=O)NC(CC(N)=O)C(=O)NC2C(=O)NC3C(=O)NC(C(=O)NC(C(=O)NCCNC(=O)C4c5ccccc5-c5ccccc54)c4cc(O)cc(O)c4-c4cc3ccc4O)C(O)c3ccc(c(Cl)c3)Oc3cc2cc(c3OC2OC(CO)C(O)C(O)C2OC2CC(C)(N)C(O)C(C)O2)Oc2ccc(cc2Cl)C1O (stereo not drawn) [Vanc-46] | 197 ± 18 | 0.78 (≈ 1.31 µg/mL) | 1 | 0.78 (≈ 1.31 µg/mL) | 2 | 2 | 0.39 (≈ 0.657 µg/mL) | 0.25 | 3.13 (≈ 5.27 µg/mL) | 25 (≈ 42.1 µg/mL) | 1.56 (≈ 2.63 µg/mL) | 4 | 6.25 (≈ 10.5 µg/mL) | 16 | 108 ± 9 | 6.25 (≈ 10.5 µg/mL) | 32 | 235 ± 21 | 25 (≈ 42.1 µg/mL) | 16 | MIC-fold improvement vs. vancomycin [6]: 16; MIC-fold improvement vs. vancomycin [13]: 1; MIC [13]: 0.78 µM (≈ 1.31 µg/mL); MIC-fold improvement vs. vancomycin [14]: 2; MIC [14]: 0.39 µM (≈ 0.657 µg/mL); IC50 [15]: 180 µM; MIC [16]: 25 µM (≈ 42.1 µg/mL); MIC-fold improvement vs. vancomycin [16]: 16 |
| CN[C@H](CC(C)C)C(=O)N[C@H]1C(=O)N[C@@H](CC(N)=O)C(=O)N[C@H]2C(=O)N[C@H]3C(=O)N[C@H](C(=O)N[C@H](C(=O)NCCNC(=O)/C=C/c4ccc(NS(=O)(=O)c5ccc(Cl)cc5Cl)cc4)c4cc(O)cc(O)c4-c4cc3ccc4O)[C@H](O)c3ccc(c(Cl)c3)Oc3cc2cc(c3O[C@@H]2O[C@H](CO)[C@@H](O)[C@H](O)[C@H]2O[C@H]2C[C@](C)(N)[C@H](O)[C@H](C)O2)Oc2ccc(cc2Cl)[C@H]1O [Vanc-64] | > 250 | 0.39 (≈ 0.72 µg/mL) | 2 | 0.39 (≈ 0.72 µg/mL) | 4 | 2 | 0.39 (≈ 0.72 µg/mL) | 4 | 0.20 (≈ 0.369 µg/mL) | 6.25 (≈ 11.5 µg/mL) | 0.78 (≈ 1.44 µg/mL) | 8 | 0.39 (≈ 0.72 µg/mL) | 256 | 102 ± 39 | 3.13 (≈ 5.78 µg/mL) | 64 | 210 ± 56 | 6.25 (≈ 11.5 µg/mL) | 64 | MIC-fold improvement vs. vancomycin [6]: 64; MIC-fold improvement vs. vancomycin [13]: 4; MIC [13]: 0.20 µM (≈ 0.369 µg/mL); MIC-fold improvement vs. vancomycin [14]: 4; MIC [14]: 0.20 µM (≈ 0.369 µg/mL); IC50 [15]: 187 µM; MIC [16]: 12.5 µM (≈ 23.1 µg/mL); MIC-fold improvement vs. vancomycin [16]: 32 |
